From BindingDB's records for doi:10.7270/Q2Z899VD (Burnham Center For Chemical Genomics, 2010)

biological target: T1, Nucleotide-binding oligomerization domain-containing protein 1 (Homo sapiens, UniProt Q9Y239); experiment: blockers of NOD1 pathway activity – revised, SAR follow-up (AID 2333)
T1 sequence (Q9Y239 whole entry): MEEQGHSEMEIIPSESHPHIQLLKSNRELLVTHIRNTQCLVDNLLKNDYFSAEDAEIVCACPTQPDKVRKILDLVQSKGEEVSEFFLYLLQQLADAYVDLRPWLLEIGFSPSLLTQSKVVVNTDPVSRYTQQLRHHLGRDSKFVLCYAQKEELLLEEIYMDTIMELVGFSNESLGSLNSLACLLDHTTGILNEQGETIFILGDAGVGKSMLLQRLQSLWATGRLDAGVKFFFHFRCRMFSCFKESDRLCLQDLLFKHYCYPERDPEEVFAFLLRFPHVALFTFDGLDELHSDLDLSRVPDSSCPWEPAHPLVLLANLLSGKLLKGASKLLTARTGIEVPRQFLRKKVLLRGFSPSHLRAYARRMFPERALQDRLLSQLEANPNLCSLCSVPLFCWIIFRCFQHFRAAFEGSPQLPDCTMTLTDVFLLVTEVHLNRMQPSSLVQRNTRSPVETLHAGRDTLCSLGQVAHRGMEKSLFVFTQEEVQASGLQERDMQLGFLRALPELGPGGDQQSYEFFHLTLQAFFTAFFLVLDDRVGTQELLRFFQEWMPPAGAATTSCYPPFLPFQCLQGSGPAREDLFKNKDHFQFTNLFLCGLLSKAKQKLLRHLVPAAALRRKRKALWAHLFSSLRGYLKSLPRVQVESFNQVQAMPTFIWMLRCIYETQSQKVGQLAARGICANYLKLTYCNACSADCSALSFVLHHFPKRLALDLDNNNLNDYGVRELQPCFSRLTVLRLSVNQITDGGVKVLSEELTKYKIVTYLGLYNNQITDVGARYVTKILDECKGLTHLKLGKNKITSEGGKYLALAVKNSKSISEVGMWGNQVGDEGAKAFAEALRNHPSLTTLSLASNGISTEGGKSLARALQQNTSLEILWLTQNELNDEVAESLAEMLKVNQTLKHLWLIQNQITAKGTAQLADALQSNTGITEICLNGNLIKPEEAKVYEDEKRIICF

| Structure (SMILES) | IC50 [µM] |
| --- | --- |
| Cc1cc(SCC(=O)OCC(=O)C(C#N)c2nc3ccccc3[nH]2)c(C)cc1Br (stereo not drawn) | > 20 |
| CCCOC1=CC(=O)C(C=NNC(=S)Nc2ccccc2[N+](=O)[O-])C=C1 (stereo not drawn) [1-(2-nitrophenyl)-3-[[(E)-(6-oxo-4-propoxy-1-cyclohexa-2,4-dienylidene)methyl]amino]thiourea] | 7.73 |
| Cc1cc(Br)ccc1SCC(=O)OCC(=O)C(C#N)c1nc2ccccc2[nH]1 (stereo not drawn) [2-[(4-bromo-2-methylphenyl)thio]acetic acid [3-cyano-3-(1,3-dihydrobenzimidazol-2-ylidene)-2-oxopropyl] ester] | > 20 |
| Cc1ccc(O)c(/N=C/C2=CC(Cc3ccccc3)C=C([N+](=O)[O-])C2=O)c1 (stereo not drawn) [(6E)-6-[[(5-methyl-2-oxidanyl-phenyl)amino]methylidene]-2-nitro-4-(phenylmethyl)cyclohexa-2,4-dien-1-one] | > 20 |
| Cc1ccc(C)c(SCC(=O)OCC(=O)C(C#N)c2nc3ccccc3[nH]2)c1 (stereo not drawn) [MLS000392255] | > 20 |
| N#CC(C(=O)COC(=O)CSc1ccc(Cl)cc1)c1nc2ccccc2[nH]1 (stereo not drawn) [MLS-0208254.0001] | > 20 |
| CCOC1=CC=CC(C=NNC(=S)Nc2ccccc2[N+](=O)[O-])C1=O (stereo not drawn) [MLS-0270696.0001] | 8.23 |
| N#CC(C(=O)COC(=O)CSc1ccc2ccccc2c1)c1nc2ccccc2[nH]1 (stereo not drawn) [[3-cyano-3-(1,3-dihydrobenzimidazol-2-ylidene)-2-oxopropyl] 2-naphthalen-2-ylsulfanylacetate] | > 20 |
